Where two headings read alike, the source gives them in different places. Where a SMILES comes first, the peptide text is derived from it. Bridges are numbered along the chain shown (N, C = ends).
Assays:
pathogenic bacteria = experiment: Radial diffusion assay, HD-5 fragments; format: cell-based; settings: pathogenic Gram-positive and Gram-negative bacteria (FIG. 4)
Method: A heat map system with high activity (inhibition zone in the RDA>5 mm), low activity (2.5 to 5 mm) and no activity (2.5 mm) was used.
(§1) Antimicrobial activity of all peptides was tested with a modified radial diffusion assay from Lehrer et al^12 Shortly described, log-phase bacteria grew (anaerobic bacteria with AnaeroGen, Oxoid in anaerobic jars) in liquid tryptic soy broth (TSB) (Becton Dickinson). After several wash steps in 10 mM sodium phosphate buffer pH 7.4, 4×10^6 cfu/ml was used per assay. To measure the antibacterial effect of the identified peptide fragments, the bacteria were incubated in 10 mM sodium phosphate (pH 7.4) containing 0.3 mg/ml TSB powder and 1% (w/v) low EEO-agarose (Applichem). Peptide fragments were then pipetted into punched wells and allowed to diffuse for 3 hours at 37° C. After that a nutrient rich gel with 6% TSB (w/v) and 1% agarose in 10 mM sodium phosphate buffer was poured on top of the first gel. After 24 hours the inhibition zones were measured. […] All experiments were carried out at least three times.

[1] = Incubation of reduced peptide with human duodenal fluid, LC/MS; format: in vitro ADME; settings: after reduction with 2 mM TCEP; duodenal fluid 30 minutes at 37° C.
Method: 2.5 μg of HD-5 or HD-6 were incubated in 50 mM NH4HCO3 buffer (pH 8.0) (Fluka) with 2 mM tris(2-carboxyethyl) phosphine for 15 minutes at 37° C. Afterwards human duodenal fluid was added and incubated for additional 30 minutes at 37° C. At last, formic acid and acetonitrile was added in a final concentration of 0.5% and 10%, respectively, and analyzed the samples by mass spectrometry. Mass spectrometry was performed as a LC/MS system using an Agilent 1200 series HPLC with an Agilent Advanced Bio Peptide Map (2.1×150 mm, 2.7 μm) column with a flow of 0.4 ml/min at 55° C. column temperature and a 6540 UHD Q-TOF LC/MS system (Agilent) for mass analysis. The samples were separated by a gradient of acetonitrile in 0.1% formic acid. The gradient started at 2% acetonitrile for 4 minutes and then increased during 35 minutes to 45%. Mass spectrometric analyses were performed in single MS mode from 100 to 3400 m/z with positive ion polarity and were analyzed by Agilent MassHunter Quantitative Analysis B 06.00 software.

E. coli MC1000 = experiment: Transmission electron microscopy of peptide treated bacteria; format: cell-based; settings: 200 μg/ml, 2 hours
Method: Transmission electron microcscopy experiments were performed as previously described^11. 6×10^8 cfu E. coli MC1000 was incubated with 200 μg/ml of each peptide for 2 hours. Bacteria were fixed in Karnovsky's fixative, embedded in agarose, coagulated, cut in small blocks and fixed again in Karnovsky's solution. After post-fixation and embedding in glycid ether blocks were cut using an ultra-microtome. Sections (30 nm) were mounted on copper grids and analyzed using a Zeiss LIBRA 120 transmissions electron microscope.

A. baumannii 4-MRGN = format: cell-based
Method: (§2) The tested bacteria were incubated overnight in 1×TSB broth, centrifuged and washed with 10 mM sodium phosphate buffer containing 1% (w/v) TSB broth. 5×10^5 cfu/ml bacteria were mixed with different peptide concentrations in 10 mM sodium phosphate buffer with 1% (w/v) TSB (final volume 100 μl) and incubated for 2 hours at 37° C. Afterwards we added 100 μl 2×TSB broth and we measured the optical density at 600 nm (Spark 10M, Tecan, Austria). Bacterial growth was monitored for 12 hours, growing at 37° C. with shaking during the measurements each 30 minutes, except for Akkermansia muciniphila which were incubated at 37° C. in an anaerobic jar and growth was measured after 72 hours.

P. aeruginosa ATCC 27853 = format: cell-based
Method: as §2

commensal bacteria = experiment: Radial diffusion assay, HD-5 fragments; format: cell-based; settings: 4 μg fragment, 2 μg full-length peptide; commensal bacteria (FIG. 3)
Method: In the RDA 2 μg of the full length and 4 μg of each fragment were used. An inhibition zone greater than 5 mm was determined as high activity, between 2.5 and 5 mm as low activity and 2.5 mm were the diameter of the punched well and therefore no activity.
as §1

S. aureus USA300 = format: cell-based
Method: as §2

S. aureus ATCC 25923 = format: cell-based
Method: as §2

A. baumannii DSM 30007 = format: cell-based
Method: as §2

P. aeruginosa XPAT2 = format: cell-based
Method: as §2

E. faecium DSM 20477 = format: cell-based
Method: as §2

K. pneumoniae 3-MRGN = format: cell-based
Method: as §2

K. pneumoniae DSM 30104 = format: cell-based
Method: as §2

E. faecium 475747 = format: cell-based
Method: as §2

P. aeruginosa 4-MRGN = format: cell-based
Method: as §2

P. aeruginosa XPAT1 = format: cell-based
Method: as §2

Y. enterocolitica = format: cell-based
Method: as §2

P. aeruginosa PAO1 = format: cell-based
Method: as §2

E. coli JM83 = format: cell-based
Method: as §2

CaCo2/TC7 cells = tested on: CaCo2/TC7 cells
Method: CaCo2/TC7 (X, X) and HT29 MTX […] […] Experiments were carried out in duplicates.

C. albicans 529L = format: cell-based
human erythrocytes = experiment: Hemolytic assay; format: cell-based; settings: compared to Melittin
Method: Hemolytic activity was measured after an existing protocol^13. We obtained blood from two voluntary donors (sample collection had been previously approved by the Ethical Committee of the University Hospital of Tübingen, Germany) and 1 ml blood was washed with PBS two times. Afterwards we centrifuged the blood at 1000 g and performed a 1% (v/v) blood suspension in PBS. The blood suspension was incubated with different peptide concentrations (final concentration 0.5%) for one hour at 37° C. Then the samples were centrifuged at 1000 g for 10 minutes and the supernatant was collected and measured at 414 nm. […] These experiments were carried out in duplicates.

E. faecalis ATCC 19433 = experiment: Turbidity assay, MIC by optical density after 18 h; format: cell-based

Method for HT29 MTX E29 cells: CaCo2/TC7 (X, X) and HT29 MTX [MUT] (X, X) were seed in a 96 well plate in 90 μl media (1500 cells/well) and incubated at 37° C. for 24 hours. Afterwards peptide treatment with different concentrations started (volume of 10 μl solved in 0.01% acetic acid) and cells were incubated for 96 hours. Untreated and 1% Triton-X treated cells were used as controls. After the incubation we added 100 μl of CellTiter Glo2.0 solution and started our measurement protocol. The measurement was carried out in a Spark 10M (Tecan), starting with 12 minutes continuously shaking followed by the luminescence measurement with an integration time from 1 second per well. Experiments were carried out in duplicates.

For `CC[C@H](C)[C@@H]1NC(=O)[C@H](CCC(=O)O)NC(=O)[C@@H]2CSSC[C@@H]3NC(=O)[C@H](Cc4ccc(O)cc4)NC(=O)[C@@H](NC(=O)[C@@H](NC(=O)[C@H](C)N)[C@@H](C)O)CSSC[C@@H](C(=O)N[C@@H](CCCNC(=N)N)C(=O)O)NC(=O)[C@H](CSSC[C@H](NC(=O)[C@H](CCCNC(=N)N)NC(=O)CNC(=O)[C@H]([C@@H](C)O)NC(=O)[C@H](CCCNC(=N)N)NC3=O)C(=O)N[C@@H](C)C(=O)N[C@@H]([C@@H](C)O)C(=O)N[C@@H](CCCNC(=N)N)C(=O)N[C@@H](CCC(=O)O)C(=O)N[C@@H](CO)C(=O)N[C@@H](CC(C)C)C(=O)N[C@@H](CO)C(=O)NCC(=O)N[C@@H](C(C)C)C(=O)N2)NC(=O)[C@H](CC(C)C)NC(=O)[C@H](CCCNC(=N)N)NC(=O)[C@H](Cc2ccc(O)cc2)NC(=O)[C@H](CC(C)C)NC(=O)[C@H](CCCNC(=N)N)NC(=O)CNC(=O)[C@H](CO)NC1=O` [HD-5, reference compound] (H-ATCYCRTGRCATRESLSGVCEISGRLYRLCCR-OH; disulfide 3-31, 5-20, 10-30 (inferred); N-terminus and C-terminus assumed), the “antimicrobial activity in radial diffusion assay” value (pathogenic bacteria) was “strong effect on the growth of every tested bacterium”, the “susceptibility to proteolytic digestion” value [1] was “digested by intestinal proteases” and the “phenotype of peptide treated bacteria (TEM)” value (E. coli MC1000) was “detached inner membrane and small vesicular structures around the bacteria cell envelope”. For the same molecule, the MIC (A. baumannii 4-MRGN; 4-MRGN, 12 h) was 6.25 µM, the MIC (A. baumannii 4-MRGN; A. baumannii 4-MRGN, after 12 hours, listed as fl) was 22.4 µg/mL and the MIC (P. aeruginosa ATCC 27853; ATCC 27853, 12 h) was 25 µM. The MIC (P. aeruginosa ATCC 27853; P. aeruginosa ATCC 27853, after 12 hours, listed as fl) was 89.7 µg/mL and the “antimicrobial activity in radial diffusion assay” value (commensal bacteria) was “broad antimicrobial activity”.
With `CC[C@H](C)[C@H](NC(=O)[C@H](CCC(=O)O)NC(=O)[C@H](CS)NC(=O)[C@@H](NC(=O)CNC(=O)[C@H](CO)NC(=O)[C@H](CC(C)C)NC(=O)[C@H](CO)NC(=O)[C@H](CCC(=O)O)NC(=O)[C@H](CCCNC(=N)N)NC(=O)[C@@H](NC(=O)[C@H](C)NC(=O)[C@H](CS)NC(=O)[C@H](CCCNC(=N)N)NC(=O)CNC(=O)[C@@H](NC(=O)[C@H](CCCNC(=N)N)NC(=O)[C@H](CS)NC(=O)[C@H](Cc1ccc(O)cc1)NC(=O)[C@H](CS)NC(=O)[C@@H](NC(=O)[C@H](C)N)[C@@H](C)O)[C@@H](C)O)[C@@H](C)O)C(C)C)C(=O)N[C@@H](CO)C(=O)NCC(=O)N[C@@H](CCCNC(=N)N)C(=O)N[C@@H](CC(C)C)C(=O)N[C@@H](Cc1ccc(O)cc1)C(=O)N[C@@H](CCCNC(=N)N)C(=O)O` [HD-51-28] (H-ATCYCRTGRCATRESLSGVCEISGRLYR-OH; N-terminus and C-terminus assumed) the “antimicrobial activity in radial diffusion assay” value (pathogenic bacteria) was “only minimally active or more selective in terms of different strains”, the “phenotype of peptide treated bacteria (TEM)” value (E. coli MC1000) was “bigger aggregation inside the bacteria” and the “antimicrobial activity in radial diffusion assay” value (commensal bacteria) was “exhibited antimicrobial properties, albeit to a lesser extent than HD-51-9”.
For `CC(C)C[C@H](NC(=O)[C@H](CCCNC(=N)N)NC(=O)[C@H](CS)NC(=O)[C@H](CO)NC(=O)[C@H](CS)NC(=O)[C@@H](N)C(C)C)C(=O)N[C@H](C(=O)N[C@@H](Cc1ccccc1)C(=O)N[C@@H](CS)C(=O)N[C@@H](CCCNC(=N)N)C(=O)N[C@@H](CCCNC(=N)N)C(=O)O)C(C)C` [HNP-41-11] (H-VCSCRLVFCRR-OH; N-terminus and C-terminus assumed), the MIC (S. aureus USA300; S. aureus USA300, after 12 hours) was 67.1 µg/mL, the MIC (S. aureus USA300; USA300, 12 h) was 50 µM and the MIC (A. baumannii 4-MRGN; 4-MRGN, 12 h) was 25 µM. It also gave an MIC (A. baumannii 4-MRGN; A. baumannii 4-MRGN, after 12 hours) of 33.5 µg/mL, an MIC (S. aureus ATCC 25923; ATCC 25923, 12 h) of 12.5 µM and an MIC (S. aureus ATCC 25923; S. aureus ATCC25923, after 12 hours) of 16.8 µg/mL. It also gave an MIC (P. aeruginosa ATCC 27853; ATCC 27853, 12 h) of 12.5 µM, an MIC (P. aeruginosa ATCC 27853; P. aeruginosa ATCC 27853, after 12 hours) of 16.8 µg/mL and an MIC (A. baumannii DSM 30007; A. baumannii DSM30007, after 12 hours) of 8.4 µg/mL. For the same molecule, the MIC (A. baumannii DSM 30007; DSM 30007, 12 h) was 6.25 µM, the MIC (P. aeruginosa XPAT2; P. aeruginosa XPAT2, after 12 hours) was 16.8 µg/mL and the MIC (P. aeruginosa XPAT2; XPAT2, 12 h) was 12.5 µM. The MIC (E. faecium DSM 20477; DSM 20477, 12 h) was 12.5 µM, the MIC (E. faecium DSM 20477; E. faecium DSM20477, after 12 hours) was 16.8 µg/mL and the MIC (K. pneumoniae 3-MRGN; 3-MRGN, 12 h) was 25 µM. For the same molecule, the MIC (K. pneumoniae 3-MRGN; K. pneumoniae 3-MRGN, after 12 hours) was 33.5 µg/mL, the MIC (K. pneumoniae DSM 30104; DSM 30104, 12 h) was 25 µM and the MIC (K. pneumoniae DSM 30104; K. pneumoniae DSM30104, after 12 hours) was 33.5 µg/mL. For the same molecule, the MIC (E. faecium 475747; 475747, 12 h) was 3.125 µM, the MIC (E. faecium 475747; E. faecium 475747, after 12 hours) was 4.2 µg/mL and the MIC (P. aeruginosa 4-MRGN; 4-MRGN, 12 h) was 50 µM. For the same molecule, the MIC (P. aeruginosa 4-MRGN; P. aeruginosa 4-MRGN, after 12 hours) was 67.1 µg/mL, the MIC (P. aeruginosa XPAT1; P. aeruginosa XPAT1, after 12 hours) was 16.8 µg/mL and the MIC (P. aeruginosa XPAT1; XPAT1, 12 h) was 12.5 µM. It also gave an MIC (Y. enterocolitica; 12 h) of 12.5 µM, an MIC (Y. enterocolitica; Y. enterocolitica, after 12 hours) of 16.8 µg/mL and an MIC (P. aeruginosa PAO1; P. aeruginosa PAO1, after 12 hours) of 16.8 µg/mL. It also gave an MIC (P. aeruginosa PAO1; PAO1, 12 h) of 12.5 µM, an MIC (E. coli JM83; E. coli JM83, after 12 hours) of 8.4 µg/mL and an MIC (E. coli JM83; JM83, 12 h) of 6.25 µM. For the same molecule, the cytotoxic effects (CaCo2/TC7 cells) was “minor cytotoxic effects”, the MIC (C. albicans 529L; 529L, 24 h) was 100 µM and the MIC (C. albicans 529L; C. albicans 529L, after 24 hours (Table 5)) was 134.2 µg/mL. For the same molecule, the “hemolytic activity, in words” value (human erythrocytes) was “low hemolytic activity” and the “cytotoxic effects compared to CaCo2/TC7” value (HT29 MTX E29 cells) was “more susceptible”.
In the case of AFTCHCRRSCYSTEYSYGTCTVMGINHRFCCL [HD-6], the “susceptibility to proteolytic digestion” value [1] is reported as “protected against proteolytic digestion”.
With “CTRATYCRG [random amino acid structure of HD51-9]” the “antimicrobial activity, in words” value (E. faecalis ATCC 19433) was “complete dissolving of bactericidal effects”.

Reference: patent US12358949B2, “Defensin fragments for use in therapy or prophylaxis” (priority 2019, dated 2025)
